Reference: ChEMBL document CHEMBL6074624, “FDA-approved small molecule kinase inhibitors for cancer treatment (2001-2015): Medical indication, structural optimization, and binding mode Part I” (Bioorg Med Chem, 2024)
Converted amounts (≈) assume the structure as drawn. Each block holds one molecule with its values, some of them ahead of it.

How the values were obtained:
[1] = Clearance in Sprague-Dawley rat at 5 mg/kg, po; assay type: ADME, organism-based; conditions: in vivo
[2] = Toxicity in ICR mouse assessed as maximal tolerated dose measured for 7 days; conditions: in vivo, time 7 day
NCI-H2228 [3] = experiment: Antitumor activity against ALK positive human NCI-H2228 cells xenografted in RNU nude rat assessed as tumor growth inhibition at 5 mg/kg, po administered for 2 weeks relative to control; assay type: functional; conditions: NCI-H2228, 336 h, read-out: TGI
KARPAS-299 [4] = experiment: Antitumor activity against ALK positive human KARPAS-299 cells xenografted in RNU nude rat assessed as tumor growth inhibition at 12.5 mg/kg, po administered for 2 weeks relative to control; assay type: functional; conditions: KARPAS-299, 336 h, read-out: TGI
KARPAS-299 [5] = experiment: Antitumor activity against ALK positive human KARPAS-299 cells xenografted in RNU nude rat assessed as tumor growth inhibition at 25 mg/kg, po administered for 2 weeks relative to control; assay type: functional; conditions: KARPAS-299, 336 h, read-out: TGI
NCI-H2228 [6] = experiment: Antitumor activity against ALK positive human NCI-H2228 cells xenografted in RNU nude rat assessed as tumor growth inhibition at 10 mg/kg, po administered for 2 weeks relative to control; assay type: functional; conditions: NCI-H2228, 336 h, read-out: TGI
KARPAS-299 [7] = experiment: Antitumor activity against ALK positive human KARPAS-299 cells xenografted in RNU nude rat assessed as tumor growth inhibition at 6.25 mg/kg, po administered for 2 weeks relative to control; assay type: functional; conditions: KARPAS-299, 336 h, read-out: TGI
[8] = Antitumor activity against human MDA-MB-231T cells xenografted in mouse assessed as tumor growth inhibition at 1 mg/kg, po relative to control; assay type: functional; conditions: read-out: TGI
[9] = Antitumor activity against human MDA-MB-231T cells xenografted in mouse assessed as tumor growth inhibition at 3 mg/kg, po relative to control; assay type: functional; conditions: read-out: TGI
[10] = Oral bioavailability in human at 5 mg/kg; assay type: ADME, organism-based; conditions: in vivo
[11] = biological target: Dual specificity mitogen-activated protein kinase kinase 1 (Homo sapiens, UniProt Q02750); experiment: Inhibition of MEK1 (unknown origin) phosphorylation by [gamma-33P]-ATP assay
Sequence of Dual specificity mitogen-activated protein kinase kinase 1 (Q02750 whole entry): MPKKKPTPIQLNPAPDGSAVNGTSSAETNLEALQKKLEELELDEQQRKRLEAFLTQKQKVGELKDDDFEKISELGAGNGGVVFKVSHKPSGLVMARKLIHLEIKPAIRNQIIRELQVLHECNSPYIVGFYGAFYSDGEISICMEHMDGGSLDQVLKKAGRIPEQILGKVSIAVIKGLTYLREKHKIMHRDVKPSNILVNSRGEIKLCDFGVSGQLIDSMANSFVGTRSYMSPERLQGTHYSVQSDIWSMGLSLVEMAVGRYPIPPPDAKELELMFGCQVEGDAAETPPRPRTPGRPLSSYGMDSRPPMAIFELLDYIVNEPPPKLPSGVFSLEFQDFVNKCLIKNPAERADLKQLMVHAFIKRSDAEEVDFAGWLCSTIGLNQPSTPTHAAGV

[12] = Antiproliferative activity against human MDA-MB-231T cells assessed as reduction in cell viability; assay type: functional, cell-based
MDA-MB-231 = experiment: Antitumor activity against human MDA-MB-231 cells xenografted in athymic nude mouse assessed as tumor growth inhibition at 20 mg/kg, po administered once daily for 11 days relative to control; assay type: functional; conditions: MDA-MB-231, 264 h, time 11 day, read-out: TGI
KARPAS-299 [13] = experiment: cells; conditions: Homo sapiens, KARPAS-299, 24 h
Caco-2 = experiment: Cytotoxicity against human Caco-2 cells assessed as reduction in cell viability; assay type: functional, cell-based
ACHN = experiment: Antiproliferative activity against human ACHN cells assessed as reduction in cell viability measured after 48 hrs by SRB assay; assay type: functional, cell-based
[14] = AUC in human; assay type: ADME
A549 [15] = experiment: Antitumor activity against human A549 cells harboring KRAS G12S mutant xenografted in athymic nude mouse assessed as tumor growth inhibition at 0.5 mg/kg, po administered once daily for 21 days relative to control; assay type: functional; conditions: A549, 504 h, time 21 day, read-out: TGI
[16] = Oral bioavailability in human; assay type: ADME, organism-based; conditions: in vivo
A549 [17] = experiment: Antitumor activity against human A549 cells harboring KRAS G12S mutant xenografted in athymic nude mouse assessed as tumor growth inhibition at […], po administered once daily for 21 days relative to control; assay type: functional; conditions: A549, 504 h, dose 2.5 mg/kg, time 21 day, read-out: TGI
[18] = Solubility of compound in PBS at pH 7.4; assay type: physicochemical
A549 [19] = experiment: Antitumor activity against human A549 cells harboring KRAS G12S mutant xenografted in athymic nude mouse assessed as tumor growth inhibition at 5 mg/kg, po administered once daily for 21 days relative to control; assay type: functional; conditions: A549, 504 h, time 21 day, read-out: TGI
A549 [20] = experiment: Antitumor activity against human A549 cells harboring KRAS G12S mutant xenografted in athymic nude mouse assessed as tumor growth inhibition at 0.1 mg/kg, po administered once daily for 21 days relative to control; assay type: functional; conditions: A549, 504 h, time 21 day, read-out: TGI
[21] = Permeability of compound in human Caco-2 cells […]; assay type: ADME, cell-based; conditions: read-out: permeability
HT-29 = experiment: Antiproliferative activity against human HT-29 cells assessed as reduction in cell viability after 72 hrs by MTS assay; assay type: functional, cell-based; conditions: HT-29, 72 h
SK-MEL-28 = experiment: Cytotoxicity against human SK-MEL-28 cells assessed as reduction in cell viability after 24 hrs by MTT assay; assay type: functional, cell-based; conditions: SK-MEL-28, 24 h
[22] = Intrinsic clearance in rat; assay type: ADME
Jurkat = experiment: cells; conditions: Homo sapiens
Ramos = experiment: cells; conditions: Homo sapiens

SMILES: O=C(NOC[C@H](O)CO)c1ccc(F)c(F)c1Nc1ccc(I)cc1F [MIRDAMETINIB]
MTD at 168 h [2]: 25 mg/kg

SMILES: Cc1cc(Nc2ncc(Cl)c(Nc3ccccc3S(=O)(=O)C(C)C)n2)c(OC(C)C)cc1C1CCNCC1 [CERITINIB]
inhibition in vivo at 5 mg/kg (NCI-H2228 [3]): 67%
inhibition in vivo at 12.5 mg/kg (KARPAS-299 [4]): 30%
inhibition in vivo at 25 mg/kg (KARPAS-299 [5]): 33%
inhibition in vivo at 10 mg/kg (NCI-H2228 [6]): 2%
inhibition in vivo at 6.25 mg/kg (KARPAS-299 [7]): 74%

SMILES: O=C(NOCC1CC1)c1ccc(F)c(F)c1Nc1ccc(I)cc1Cl [CI-1040]
IC50 (Caco-2): 35 nM

SMILES: C=CC(=O)N1CCC[C@@H](n2nc(-c3ccc(Oc4ccccc4)cc3)c3c(N)ncnc32)C1 [IBRUTINIB]
IC50 (Jurkat): 470 nM
IC50 (Ramos): 40 nM

The next lines start with results.

CL [1]: 8.324 mL/min/kg
SMILES: O=C(c1ccc(F)c(F)c1Nc1ccc(I)cc1F)N1CC(O)C1

bioavailability [10]: 77%
IC50 [11]: 6.6 nM
SMILES: O=C(c1ccc(F)c(F)c1Nc1ccc(I)cc1F)N1CC(O)([C@@H]2CCCCN2)C1 [COBIMETINIB]
inhibition in vivo at 1 mg/kg [8]: 60%
inhibition in vivo at 3 mg/kg [9]: 93%
IC50 [12]: 0.2 nM

IC50 (KARPAS-299 [13]): 12.8 nM
SMILES: CCc1cc2c(cc1N1CCC(N3CCOCC3)CC1)C(C)(C)c1[nH]c3cc(C#N)ccc3c1C2=O [ALECTINIB]
inhibition in vivo at 20 mg/kg (MDA-MB-231): 119%

IC50 (ACHN): 9.8 nM
AUC [14]: 88.3 µM·h
bioavailability [16]: 30%
solubility [18]: 5.3 µM (≈ 3.26 µg/mL)
Papp [21]: 26 ×10⁻⁶ cm/s
IC50 (HT-29): 0.57 nM
SMILES: CC(=O)Nc1cccc(-n2c(=O)n(C3CC3)c(=O)c3c(Nc4ccc(I)cc4F)n(C)c(=O)c(C)c32)c1 [TRAMETINIB]
inhibition in vivo at 0.5 mg/kg (A549 [15]): 62%
inhibition in vivo at […] (A549 [17]): 87%
inhibition in vivo at 5 mg/kg (A549 [19]): 92%
inhibition in vivo at 0.1 mg/kg (A549 [20]): 58%

clearance [22]: 19 mL/min/kg
SMILES: CC(C)(C)c1nc(-c2cccc(NS(=O)(=O)c3c(F)cccc3F)c2F)c(-c2ccnc(N)n2)s1 [DABRAFENIB]
IC50 (SK-MEL-28): 3 nM
